Data: patent US9688627B2, “Lactam compounds as EP4 receptor-selective agonists for use in the treatment of EP4-mediated diseases and conditions” (Cayman Chemical Company, Inc., priority 2013, dated 2017)

How the values were obtained:
rat EP4 receptor = target: T1, rat EP4 receptor (Rattus norvegicus, UniProt P43114); assay: SEAP activity assay on EP4 STEP plate; assay type: cell-based; settings: SEAP luminescence, 6-8 hours of stimulation; read-out: STEP cell functional assay EC50 SEAP/EP4
T1 construct: cells seeded on STEP plates
T1 sequence (P43114 whole entry): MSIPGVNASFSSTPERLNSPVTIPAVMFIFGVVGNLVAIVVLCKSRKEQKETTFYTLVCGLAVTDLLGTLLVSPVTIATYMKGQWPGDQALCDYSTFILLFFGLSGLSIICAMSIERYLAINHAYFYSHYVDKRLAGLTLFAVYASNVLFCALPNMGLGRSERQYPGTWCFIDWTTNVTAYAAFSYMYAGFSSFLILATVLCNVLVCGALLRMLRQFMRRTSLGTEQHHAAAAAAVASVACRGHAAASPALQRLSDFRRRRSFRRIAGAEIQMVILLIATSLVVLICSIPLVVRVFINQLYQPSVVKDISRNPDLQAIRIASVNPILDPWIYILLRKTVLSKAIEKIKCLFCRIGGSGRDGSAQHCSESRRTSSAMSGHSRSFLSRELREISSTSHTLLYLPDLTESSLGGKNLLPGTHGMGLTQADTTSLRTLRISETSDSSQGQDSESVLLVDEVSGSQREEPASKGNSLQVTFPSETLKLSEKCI
Source text: (§1) 2. […] In addition each concentration had triplicates. […] 4. […] Cover the plate with the lid. […] 6. […] 7. […] 8.

rat EP2 receptor = target: T2, rat EP2 receptor (Rattus norvegicus, UniProt Q62928); assay: SEAP activity assay on EP2 STEP plate; assay type: cell-based; settings: SEAP luminescence, 6-8 hours of stimulation; read-out: STEP cell functional assay EC50 SEAP/EP2
T2 construct: cells seeded on STEP plates
T2 sequence (Q62928 whole entry): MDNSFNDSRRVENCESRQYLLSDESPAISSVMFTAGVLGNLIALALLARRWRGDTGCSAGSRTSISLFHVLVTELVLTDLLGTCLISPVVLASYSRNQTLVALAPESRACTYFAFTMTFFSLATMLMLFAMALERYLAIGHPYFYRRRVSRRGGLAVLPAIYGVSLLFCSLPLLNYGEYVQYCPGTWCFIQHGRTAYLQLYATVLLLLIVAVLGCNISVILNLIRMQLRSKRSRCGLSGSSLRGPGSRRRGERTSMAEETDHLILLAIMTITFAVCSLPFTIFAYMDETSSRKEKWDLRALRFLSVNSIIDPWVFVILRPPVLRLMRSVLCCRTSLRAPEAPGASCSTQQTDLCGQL
Source text: as §1

| SMILES | EC50 (rat EP4 receptor) [nM] | EC50 (rat EP2 receptor) [nM] |
| --- | --- | --- |
| CCC#CCC(C)[C@@H](O)/C=C/[C@H]1CCC(=O)N1CCCCCCC(=O)O (mixture of isomers) [Example 2D, 7-((2R)-2-((3R,4R/S,E)-3-hydroxy-4-methylnon-1-en-6-yn-1-yl)-5-oxopyrrolidin-1-yl)heptanoic acid] | 0.145 | 1420 |
| CCCC#CCC(C)[C@H](O)/C=C/[C@H]1CCC(=O)N1CCCCCCC(=O)OC (mixture of isomers) [Example 3A, methyl 7-((2R)-2-((3S,4R/S,E)-3-hydroxy-4-methyldec-1-en-6-yn-1-yl)-5-oxopyrrolidin-1-yl)heptanoate] | 8.64 | 2490 |
| CCCC#CCC(C)[C@@H](O)/C=C/[C@H]1CCC(=O)N1CCCCCCC(=O)OC (mixture of isomers) [Example 3B, methyl 7-((2R)-2-((3R,4R/S,E)-3-hydroxy-4-methyldec-1-en-6-yn-1-yl)-5-oxopyrrolidin-1-yl)heptanoate] | 223 | > 10000 |
| CCCC#CCC(C)[C@H](O)/C=C/[C@H]1CCC(=O)N1CCCCCCC(=O)O (mixture of isomers) [Example 3C, 7-((2R)-2-((3S,4R/S,E)-3-hydroxy-4-methyldec-1-en-6-yn-1-yl)-5-oxopyrrolidin-1-yl)heptanoic acid] | 0.085 | 2260 |
| CCCC#CCC(C)[C@@H](O)/C=C/[C@H]1CCC(=O)N1CCCCCCC(=O)O (mixture of isomers) [Example 3D, 7-((2R)-2-((3R,4R/S,E)-3-hydroxy-4-methyldec-1-en-6-yn-1-yl)-5-oxopyrrolidin-1-yl)heptanoic acid] | 29 | > 10000 |
| CC(CC#Cc1ccccc1)[C@H](O)/C=C/[C@H]1CCC(=O)N1CCCCCCC(=O)O (mixture of isomers) [Example 4C, 7-((2R)-2-((3S,4R/S,E)-3-hydroxy-4-methyl-7-phenylhept-1-en-6-yn-1-yl)-5-oxopyrrolidin-1-yl)heptanoic acid] | 2.49 | 830 |
| CC#CCC(C)[C@H](O)/C=C/[C@H]1CCC(=O)N1CCc1ccc(C(=O)OC)cc1 (mixture of isomers) [Example 8A, methyl 4-(2-((2R)-2-((3S,4R/S,E)-3-hydroxy-4-methyloct-1-en-6-yn-1-yl)-5-oxopyrrolidin-1-yl)ethyl)benzoate] | 6.74 | 364 |
| CC#CCC(C)[C@@H](O)/C=C/[C@H]1CCC(=O)N1CCc1ccc(C(=O)OC)cc1 (mixture of isomers) [Example 8B, methyl 4-(2-((2R)-2-((3R,4R/S,E)-3-hydroxy-4-methyloct-1-en-6-yn-1-yl)-5-oxopyrrolidin-1-yl)ethyl)benzoate] | 1640 |  |
| CC#CCC(C)[C@@H](O)/C=C/[C@H]1CCC(=O)N1CCc1ccc(C(=O)O)cc1 (mixture of isomers) [Example 8D, 4-(2-((2R)-2-((3R,4R/S,E)-3-hydroxy-4-methyloct-1-en-6-yn-1-yl)-5-oxopyrrolidin-1-yl)ethyl)benzoic acid] | 13.4 | 1130 |
| COC(=O)CCCCCCN1C(=O)CC[C@@H]1/C=C/[C@@H](O)CCC#Cc1ccccc1 (single isomer, unassigned) [Example 5A] | 77.7 | > 10000 |
| COC(=O)CCCCCCN1C(=O)CC[C@@H]1/C=C/[C@H](O)CCC#Cc1ccccc1 (single isomer, unassigned) [Example 5B] | 41.5 | > 5000 |
| CCC#C[C@H](O)/C=C/[C@H]1CCC(=O)N1CCCCCCC(=O)OC (single isomer, unassigned) [Example 6A] | 6.71 | > 3000 |
| CCC#C[C@@H](O)/C=C/[C@H]1CCC(=O)N1CCCCCCC(=O)OC (single isomer, unassigned) [Example 6B] |  | > 2000 |
| CCC#CC[C@@H](C)[C@H](O)/C=C/[C@H]1CCC(=O)N1CCCCCCC(=O)O [Example 2F, 7-((R)-2-((3S,4R,E)-3-hydroxy-4-methylnon-1-en-6-yn-1-yl)-5-oxopyrrolidin-1-yl)heptanoic acid] | 1.06 ± 0.11 |  |
| O=C(O)CCCCCCN1C(=O)CC[C@@H]1/C=C/[C@@H](O)CCC#Cc1ccccc1 [Example 5C, 7-((R)-2-((3S,E)-3-hydroxy-7-phenylhept-1-en-6-yn-1-yl)-5-oxopyrrolidin-1-yl)heptanoic acid] | 111 |  |
| O=C(O)CCCCCCN1C(=O)CC[C@@H]1/C=C/[C@H](O)CCC#Cc1ccccc1 [Example 5D, 7-((R)-2-((3R,E)-3-hydroxy-7-phenylhept-1-en-6-yn-1-yl)-5-oxopyrrolidin-1-yl)heptanoic acid] | 46.8 |  |
| CCC#C[C@H](O)/C=C/[C@H]1CCC(=O)N1CCCCCCC(=O)O [Example 6C, 7-((R)-2-((R,E)-3-hydroxyhept-1-en-4-yn-1-yl)-5-oxopyrrolidin-1-yl)heptanoic acid] | 4.73 |  |
| CCC#C[C@@H](O)/C=C/[C@H]1CCC(=O)N1CCCCCCC(=O)O [Example 6D, 7-((R)-2-((S,E)-3-hydroxyhept-1-en-4-yn-1-yl)-5-oxopyrrolidin-1-yl)heptanoic acid] | 4.79 |  |
| O=C(O)CCCCCCN1C(=O)CC[C@@H]1/C=C/[C@@H](O)C#Cc1ccccc1 [Example 7C, 7-((R)-2-((R,E)-3-hydroxy-5-phenylpent-1-en-4-yn-1-yl)-5-oxopyrrolidin-1-yl)heptanoic acid] | 22.3 | > 10000 |

Other lines, results leading:

| EC50 (rat EP4 receptor) [nM] | EC50 (rat EP2 receptor) [nM] | SMILES |
| --- | --- | --- |
| 0.054 | 2960 | CC(CC#Cc1ccccc1)[C@H](O)/C=C/[C@H]1CCC(=O)N1CCc1ccc(C(=O)O)cc1 (mixture of isomers) [Example 11C, 4-(2-((2R)-2-((3S,4R/S,E)-3-hydroxy-4-methyl-7-phenylhept-1-en-6-yn-1-yl)-5-oxopyrrolidin-1-yl)ethyl)benzoic acid] |
| 3.51 | 1750 | CC(CC#Cc1ccccc1)[C@@H](O)/C=C/[C@H]1CCC(=O)N1CCc1ccc(C(=O)O)cc1 (mixture of isomers) [Example 11D, 4-(2-((2R)-2-((3R,4R/S,E)-3-hydroxy-4-methyl-7-phenylhept-1-en-6-yn-1-yl)-5-oxopyrrolidin-1-yl)ethyl)benzoic acid] |
| 2290 | > 10000 | CC#CCC(C)[C@H](O)/C=C/[C@H]1CCC(=O)N1Cc1ccc(CC(=O)O)cc1 (mixture of isomers) [Example 12C, 2-(4-(((2R)-2-((3S,4R/S,E)-3-hydroxy-4-methyloct-1-en-6-yn-1-yl)-5-oxopyrrolidin-1-yl)methyl)phenyl)acetic acid] |
| > 10000 | > 10000 | CC#CCC(C)[C@@H](O)/C=C/[C@H]1CCC(=O)N1Cc1ccc(CC(=O)O)cc1 (mixture of isomers) [Example 12D, 2-(4-(((2R)-2-((3R,4R/S,E)-3-hydroxy-4-methyloct-1-en-6-yn-1-yl)-5-oxopyrrolidin-1-yl)methyl)phenyl)acetic acid] |
| 947 | > 10000 | CCC#CCC(C)[C@H](O)/C=C/[C@H]1CCC(=O)N1C/C=C\c1ccc(C(=O)O)s1 (mixture of isomers) [Example 15C, 5-((Z)-3-((2R)-2-((3S,4R/S,E)-3-hydroxy-4-methylnon-1-en-6-yn-1-yl)-5-oxopyrrolidin-1-yl)prop-1-en-1-yl)thiophene-2-carboxylic acid] |
| 1600 | > 10000 | CCC#CCC(C)[C@@H](O)/C=C/[C@H]1CCC(=O)N1C/C=C\c1ccc(C(=O)O)s1 (mixture of isomers) [Example 15D, 5-((Z)-3-((2R)-2-((3R,4R/S,E)-3-hydroxy-4-methylnon-1-en-6-yn-1-yl)-5-oxopyrrolidin-1-yl)prop-1-en-1-yl)thiophene-2-carboxylic acid] |
| 67.2 | > 10000 | CC(CC#Cc1ccccc1)[C@H](O)/C=C/[C@H]1CCC(=O)N1C/C=C\c1ccc(C(=O)O)s1 (mixture of isomers) [Example 16C, 5-((Z)-3-((2R)-2-((3S,4R/S,E)-3-hydroxy-4-methyl-7-phenylhept-1-en-6-yn-1-yl)-5-oxopyrrolidin-1-yl)prop-1-en-1-yl)thiophene-2-carboxylic acid] |
| 1200 | > 10000 | CC(CC#Cc1ccccc1)[C@@H](O)/C=C/[C@H]1CCC(=O)N1C/C=C\c1ccc(C(=O)O)s1 (mixture of isomers) [Example 16D, 5-((Z)-3-((2R)-2-((3R,4R/S,E)-3-hydroxy-4-methyl-7-phenylhept-1-en-6-yn-1-yl)-5-oxopyrrolidin-1-yl)prop-1-en-1-yl)thiophene-2-carboxylic acid] |
| 18.3 | > 10000 | CCC#CCC(C)[C@H](O)/C=C/[C@H]1CCC(=O)N1CC#Cc1ccc(C(=O)O)s1 (stereo partly drawn) [Example 13C, 5-(3-((2R)-2-((3S,E)-3-hydroxy-4-methylnon-1-en-6-yn-1-yl)-5-oxopyrrolidin-1-yl)prop-1-yn-1-yl)thiophene-2-carboxylic acid] |
|  | > 10000 | CCC#CCC(C)[C@@H](O)/C=C/[C@H]1CCC(=O)N1CC#Cc1ccc(C(=O)O)s1 (stereo partly drawn) [Example 13D, 5-(3-((2R)-2-((3R,E)-3-hydroxy-4-methylnon-1-en-6-yn-1-yl)-5-oxopyrrolidin-1-yl)prop-1-yn-1-yl)thiophene-2-carboxylic acid] |
| 0.091 | > 10000 | CCC#CCC(C)[C@H](O)/C=C/[C@H]1CCC(=O)N1CCCc1ccc(C(=O)O)s1 (stereo partly drawn) [Example 17F, 5-(3-((R)-2-((3S,E)-3-hydroxy-4-methylnon-1-en-6-yn-1-yl)-5-oxopyrrolidin-1-yl)propyl)thiophene-2-carboxylic acid] |
| 18.4 | > 10000 | CCC#CCC(C)[C@@H](O)/C=C/[C@H]1CCC(=O)N1CCCc1ccc(C(=O)O)s1 (stereo partly drawn) [Example 17G, 5-(3-((R)-2-((3R,E)-3-hydroxy-4-methylnon-1-en-6-yn-1-yl)-5-oxopyrrolidin-1-yl)propyl)thiophene-2-carboxylic acid] |
